The target of one assay is T1, DHFR-C-HiBiT (Homo sapiens, UniProt P00374).
T1 sequence (P00374 2-187): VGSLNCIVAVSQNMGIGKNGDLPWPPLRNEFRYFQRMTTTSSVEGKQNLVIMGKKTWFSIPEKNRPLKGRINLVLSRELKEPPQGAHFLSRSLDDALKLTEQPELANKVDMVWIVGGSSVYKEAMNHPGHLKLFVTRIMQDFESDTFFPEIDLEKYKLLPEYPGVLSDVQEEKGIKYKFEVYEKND
The experiment in a line: SDR assay, purified DHFR-C-HiBiT. Conditions: DHFR-C-HiBiT 0.5 nM, 5 μM NADPH (SDR) vs 100 nM, 75 μM NADPH (functional). On the technique in general: HiBiT is a short tag that completes a luciferase, so light tracks the accessible tagged protein.

In another assay the test system is PKA. As to conditions: annotation yes/no for kinase library compound; source not given; cited from earlier work.
A further assay deals with ABL1. Conditions: cited from earlier work.
Assay [1] addresses T2, PKA-N-HiBiT (Homo sapiens, UniProt P17612). Kind of assay: SDR assay, PKA-N-HiBiT. As to conditions: for SDR Ave Max Response: average maximal response.
The target of assay [2] is T3, ABL1-N-HiBiT kinase domain (Homo sapiens, UniProt P00519).
T3 sequence (P00519 233-500): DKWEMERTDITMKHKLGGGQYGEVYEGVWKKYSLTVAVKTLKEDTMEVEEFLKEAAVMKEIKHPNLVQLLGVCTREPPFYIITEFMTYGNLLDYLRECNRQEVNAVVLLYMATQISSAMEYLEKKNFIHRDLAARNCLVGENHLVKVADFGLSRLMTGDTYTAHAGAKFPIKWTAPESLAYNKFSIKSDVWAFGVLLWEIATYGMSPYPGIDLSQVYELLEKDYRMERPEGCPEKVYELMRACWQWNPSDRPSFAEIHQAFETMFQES
The experiment in a line: SDR assay, ABL1-N-HiBiT. As to conditions: for ABL1 SDR pSDR50: heatmap data, 128 kinase inhibitors; for EC50: read-out: SDR Ave SDR50, average, unit inferred; for SDR output: ABL1-N-HiBiT, Log [Compound].

Assay [3] concerns the target T2, PKA-N-HiBiT. Kind of assay: PKA peptide phosphorylation, Kinase-Glo Plus (KGP) assay, PKA-N-HiBiT. Format: biochemical. The arrangement: containing amino acids Gly2-Phe351; His10 (N); made in house; host or cells: E. coli BL21(DE3). As to conditions: KGP Rep 1. The method, then:
Kinase activity was measured by ATP depletion using the Kinase-Glo Plus (KGP) assay kit (Promega) in 1536-well plate format. […] Controls were added with a Mosquito dispenser (STP LabTech) while compounds were transferred with a pintool to each plate as described in Supplementary Data 8 and incubated for 30 min at ambient temperature. […] Following a 10 min incubation, KGP luminescence was measured with a ViewLux plate reader with 1 sec exposure, with medium to high gain setting, slow speed and 2x binning. Data were normalized to the average of no enzyme control column as 100% kinase inhibition and DMSO control column as 100% phosphorylation reaction progress. See Supplementary Table 5 for additional details.
Protocol for Abelson kinase (ABL1) and protein kinase A (PKA) peptide phosphorylation assays
Supplementary Table 5: Protocol for Abelson kinase (ABL1) and protein kinase A (PKA) peptide phosphorylation assays Sequence Param eter Value Description
3 Incubation 30 m in Incubate enzym e + com pounds at am bient tem p for 30 m in, protected from light […]
protocol; dispensed with BioRaptr 2

For assay [4], the target named is T4, ABL1-C-HiBiT kinase domain (Homo sapiens, UniProt P00519).
T4 sequence (P00519 233-500): T3 sequence (P00519 233-500)
Kind of assay: SDR assay, ABL1-C-HiBiT. Conditions: for SDR output: ABL1-C-HiBiT, Log [Compound].

Assay [5] deals with T3, ABL1-N-HiBiT kinase domain. Kind of assay: ABL1 peptide phosphorylation, Kinase-Glo Plus (KGP) assay, ABL1-N-HiBiT. Format: biochemical. The arrangement: containing amino acid residues Asp233-Ser500; His10 (N); made in house; host or cells: E. coli BL21(DE3).
Setting [6] is: ABL1-N-HiBiT qHTS, average maximal SDR response.

Where “and” joins values, the source holds several entries; their conditions need not be identical. Equal entries are not always repeated. Where two headings read alike, the source gives them in different places.

For `COc1cc(NCc2ccc3nc(N)nc(N)c3c2C)cc(OC)c1OC` [trimetrexate], the “enhanced sensitivity in the SDR assay format versus functional DHFR assay” value on DHFR-C-HiBiT is recorded as ~ 100 fold.

With `Cn1c(=O)c2c(ncn2C)n(C)c1=O` [Caffeine], in the assay on PKA, the “Annotated PKA activity” value is reported as “no”. Besides, in the assay on ABL1, the “Annotated ABL1 activity” value is recorded as “no”. In addition, the “SDR Ave Max Response” value on PKA-N-HiBiT [1] (PKA-N-HiBiT qHTS, SDR assay) is on record as -17.81. The “SDR Ave Max Response” value in assay [2] (setting [6]) was determined as 3.59. On PKA-N-HiBiT [3], the Efficacy is listed as -14.65, the “Hill Coef” value is 2.85 and the “Max Resp” value was 7.79. Also, the CC-v2 on PKA-N-HiBiT [3] (curve class) turned out to be 4.

Take `C/C(O)=C(\C#N)C(=O)Nc1cc(Br)ccc1Br` [LFM-A13]: the “Annotated PKA activity” value in the assay with PKA is on record as “no”. Besides, the “Annotated ABL1 activity” value in the assay with ABL1 was “no”. The “SDR Ave Max Response” value at PKA-N-HiBiT [1] (PKA-N-HiBiT qHTS, SDR assay) was -81.79; in assay [2] (setting [6]), -82.68. The EC50 amounted to 4.14 µM on PKA-N-HiBiT [1] (read-out: PKA SDR Ave SDR50, PKA-N-HiBiT qHTS, SDR assay, average) and 3.72 µM in assay [2] (ABL1-N-HiBiT qHTS). For the same compound, the “PKA SDR Assay Mean (pSDR50)” value at PKA-N-HiBiT [1] (without ATP) is 5.40. The “ABL1 SDR pSDR50” value in assay [2] is 5.44.

`O=C(NCCO)c1cccc(-c2cc(Nc3ccc(OC(F)(F)F)cc3)ncn2)c1` [GNF5]: the SDR output in assay [2] (M -4.51) is -1.2; in assay [2] (M -8.12), 1.9 and 2.5; in assay [2] (M -8.42), 2.5; in assay [2] (M -8.72), 2.7 and 1.9; in assay [4] (M -4.20), 11.5 and 10.7; in assay [4] (M -5.41) it was 4.5 and 3.0. In addition, the SDR output was 0.159 and 0.3 in assay [4] (M -5.71); 1.8 and 1.6 in assay [4] (M -7.21); 3.3 and 3.0 in assay [4] (M -7.52); 5.4 and 5.3 in assay [4] (M -7.82); 3.3 and 3.7 in assay [4] (M -8.12); 7.4 and 4.5 in assay [4] (M -8.42). The “Effect on enzyme catalysis” value in assay [5] (Log [Compound], M -4.51) was 1.2 and 2.4.

In the case of `COc1cc2c(Oc3ccc4[nH]c(C)cc4c3F)ncnc2cc1OCCCN1CCCC1` [Cediranib], the “Annotated PKA activity” value in the assay with PKA is “no”. Also, the “Annotated ABL1 activity” value in the assay with ABL1 was “yes”. Besides, the “SDR Ave Max Response” value is reported as 5.41 at PKA-N-HiBiT [1] (PKA-N-HiBiT qHTS, SDR assay) and 72.22 in assay [2].

In the case of `COc1cc(N2CCN(C)CC2)ccc1Nc1nc(N)c(C(=O)c2c(Cl)cccc2Cl)s1` [HMSL10089], in the assay with PKA, the “Annotated PKA activity” value is on record as “no”. Besides, the “Annotated ABL1 activity” value with ABL1 was “no”. Besides, the “SDR Ave Max Response” value on PKA-N-HiBiT [1] (PKA-N-HiBiT qHTS, SDR assay) is recorded as -4.43; in assay [2], 0.77.

For orientation: IC50 means the concentration at which inhibition is half-maximal. Consider `COc1ccccc1-c1c[nH]c2ncc(-c3cncc(C(=O)N(C)C)c3)cc12` [PPY A], for which, in the assay with PKA, the “Annotated PKA activity” value is recorded as “no”. Besides, the “Annotated ABL1 activity” value in the assay with ABL1 is listed as “yes”. Moreover, the “SDR Ave Max Response” value at PKA-N-HiBiT [1] (PKA-N-HiBiT qHTS, SDR assay) is 11.97; in assay [2] (setting [6]) it was 88.01. In addition, the “ABL1 SDR pSDR50” value in assay [2] was determined as 8.52. Besides, the EC50 in assay [2] (ABL1-N-HiBiT qHTS) was 0.00304 µM. In addition, the “ABL1 KGP pIC50” value in assay [5] (ABL1, Kinase-Glo Plus (KGP), heatmap data, 128 kinase inhibitors) stood at 7.53. For the same compound, the half-maximal inhibitory concentration (IC50) in assay [5] (ABL1-N-HiBiT qHTS, average, unit inferred, read-out: ABL1 KGP Ave IC50) came out at 0.0341 µM.

As for `CCN(CC)CCOc1ccc(Nc2ncc3cc(-c4c(Cl)cccc4Cl)c(=O)n(C)c3n2)cc1.Cl.Cl.O` [PD-166285 hydrate], the “Annotated PKA activity” value in the assay on PKA is “no”. For the same compound, the “Annotated ABL1 activity” value with ABL1 was “yes”. The “SDR Ave Max Response” value was -22.35 at PKA-N-HiBiT [1] (PKA-N-HiBiT qHTS, SDR assay) and 51.60 in assay [2] (setting [6]).

`COc1ccc(S(=O)(=O)N(C(C)=O)c2ccccc2/C=C/c2cc[n+]([O-])cc2)cc1` [HMN-214]: the “Annotated PKA activity” value with PKA is reported as “no”. Further, the “Annotated ABL1 activity” value in the assay on ABL1 is on record as “no”. The “SDR Ave Max Response” value on PKA-N-HiBiT [1] (PKA-N-HiBiT qHTS, SDR assay) is recorded as 5.93; in assay [2] (setting [6]) it was 8.52.

In the case of `O=[N+]([O-])O[C@H]1CO[C@H]2[C@@H]1OC[C@H]2O[N+](=O)[O-]` [Isosorbide dinitrate], the “Annotated PKA activity” value in the assay on PKA was “no”. Besides, the “Annotated ABL1 activity” value in the assay on ABL1 was “no”. The “SDR Ave Max Response” value on PKA-N-HiBiT [1] (PKA-N-HiBiT qHTS, SDR assay) came to 6.02; in assay [2] (setting [6]) it was 6.72.

Take `Nc1nc(N)c2nc(CNc3ccc(C(=O)N[C@@H](CCC(=O)O)C(=O)O)cc3)cnc2n1` [aminopterin]: the “enhanced sensitivity in the SDR assay format versus functional DHFR assay” value at DHFR-C-HiBiT is on record as ~ 100 fold.

On to `CC(C)(C)n1nc(-c2cccc3ccccc23)c2c(N)ncnc21` [1-Naphthyl PP1], for which the “Annotated PKA activity” value with PKA is “no”. In addition, the “Annotated ABL1 activity” value with ABL1 was “yes”. Besides, the “SDR Ave Max Response” value turned out to be 10.40 at PKA-N-HiBiT [1] (PKA-N-HiBiT qHTS, SDR assay) and 61.87 in assay [2] (setting [6]).

In the case of `CN(Cc1cnc2nc(N)nc(N)c2n1)c1ccc(C(=O)NC(CC(F)C(=O)O)C(=O)O)cc1` (stereo not shown) [γ-fluoromethotrexate], on DHFR-C-HiBiT, the “enhanced sensitivity in the SDR assay format versus functional DHFR assay” value is on record as ~ 100 fold.

`N#Cc1cn([C@@H]2O[C@H](CO)[C@@H](O)[C@H]2O)c2ncnc(N)c12` [Toyocamycin]: the “Annotated PKA activity” value with PKA is recorded as “no”. The “Annotated ABL1 activity” value in the assay with ABL1 is listed as “no”. The “SDR Ave Max Response” value is -0.53 at PKA-N-HiBiT [1] (PKA-N-HiBiT qHTS, SDR assay) and 72.44 in assay [2] (setting [6]). The “ABL1 SDR pSDR50” value in assay [2] is given as 4.93. For the same compound, the EC50 in assay [2] (ABL1-N-HiBiT qHTS) is 12.8 µM.

Regarding `O=C(NCCO)c1cccc(-c2cc(Nc3ccc(OC(F)(F)F)cc3)ncn2)c1` [GNF-5, reference compound], the “Annotated PKA activity” value in the assay on PKA is “no”. The Emax on PKA-N-HiBiT [1] (read-out: SDR Ave Max Response) is 1.25%; in assay [2] (read-out: SDR Ave Max Response) it was 13.8%. Besides, the “detection in ABL1-N-HiBiT SDR assay (in words)” value in assay [2] was “neither was identified”. Further, the “detection in ABL1-C-HiBiT SDR assay (in words)” value in assay [4] is “beginning to detect”. Moreover, the “detection in functional enzymatic ABL1 kinase assay (in words)” value in assay [5] (KGP assay) is “neither was identified”.

The values are drawn from publication PMC12064818, “A general assay platform to study protein pharmacology using ligand-dependent structural dynamics” (Nature Communications, 2025).
